# In PubChem BioAssay (NCI):
#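 Five concentrations, 48 hours, 96-well plates. TGI denotes the concentration required for complete inhibition of growth.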
# What was measured:
# Assay in all cases: growth of human tumour cells (NCI), 48 h
# M14 melanoma = tested on: M14 melanoma
# HCT-15 colon = tested on: HCT-15 colon
# LOX IMVI melanoma = tested on: LOX IMVI melanoma
# NCI-H460 lung = tested on: NCI-H460 lung
# MDA-MB-231 breast = tested on: MDA-MB-231 breast
# OVCAR-3 ovarian = tested on: OVCAR-3 ovarian
# SK-MEL-2 melanoma = tested on: SK-MEL-2 melanoma
# MDA-MB-435 = tested on: MDA-MB-435
# HL-60(TB) leukemia = tested on: HL-60(TB) leukemia
# 786-0 renal = tested on: 786-0 renal
# SW-620 colon = tested on: SW-620 colon
# NCI-H226 lung = tested on: NCI-H226 lung
# MALME-3M melanoma = tested on: MALME-3M melanoma
# MCF7 breast = tested on: MCF7 breast
# CAKI-1 renal = tested on: CAKI-1 renal
# OVCAR-5 ovarian = tested on: OVCAR-5 ovarian
# SNB-75 CNS = tested on: SNB-75 CNS
# SK-MEL-5 melanoma = tested on: SK-MEL-5 melanoma
# UO-31 renal = tested on: UO-31 renal
# HCT-116 colon = tested on: HCT-116 colon
# HT29 colon = tested on: HT29 colon
# U251 CNS = tested on: U251 CNS
# SF-539 CNS = tested on: SF-539 CNS
# K-562 leukemia = tested on: K-562 leukemia
# DU-145 prostate = tested on: DU-145 prostate
# SNB-19 CNS = tested on: SNB-19 CNS
# NCI-H522 lung = tested on: NCI-H522 lung
# BT-549 breast = tested on: BT-549 breast
# OVCAR-8 ovarian = tested on: OVCAR-8 ovarian
# MDA-N = tested on: MDA-N
# A549 NSCLC = tested on: A549 NSCLC
# SK-OV-3 ovarian = tested on: SK-OV-3 ovarian
# SF-268 CNS = tested on: SF-268 CNS
# PC-3 prostate = tested on: PC-3 prostate
# A498 renal = tested on: A498 renal
# TK-10 renal = tested on: TK-10 renal
# CCRF-CEM leukemia = tested on: CCRF-CEM leukemia
# SF-295 CNS = tested on: SF-295 CNS
# EKVX NSCLC = tested on: EKVX NSCLC
# RXF 393 renal = tested on: RXF 393 renal
# HOP-62 NSCLC = tested on: HOP-62 NSCLC
# IGROV1 ovarian = tested on: IGROV1 ovarian
# SN12C renal = tested on: SN12C renal
# HS 578T breast = tested on: HS 578T breast
# NCI-H23 lung = tested on: NCI-H23 lung
# T-47D breast = tested on: T-47D breast
# RPMI-8226 leukemia = tested on: RPMI-8226 leukemia
# KM12 colon = tested on: KM12 colon
# COLO 205 colon = tested on: COLO 205 colon
# UACC-62 melanoma = tested on: UACC-62 melanoma
# SK-MEL-28 melanoma = tested on: SK-MEL-28 melanoma
# HOP-92 NSCLC = tested on: HOP-92 NSCLC
# UACC-257 melanoma = tested on: UACC-257 melanoma
# ACHN renal = tested on: ACHN renal
# OVCAR-4 ovarian = tested on: OVCAR-4 ovarian
# MOLT-4 leukemia = tested on: MOLT-4 leukemia
# HCC-2998 colon = tested on: HCC-2998 colon
# NCI/ADR-RES ovarian = tested on: NCI/ADR-RES ovarian
smiles,measurement,setting,value
O=C1OC(=O)C2CCCC3CCCC1C32 (stereo not given),TGI,M14 melanoma,> 100 µM
same,TGI,HCT-15 colon,> 100 µM
same,TGI,LOX IMVI melanoma,> 100 µM
same,TGI,NCI-H460 lung,> 100 µM
same,TGI,MDA-MB-231 breast,> 100 µM
same,TGI,OVCAR-3 ovarian,> 100 µM
same,TGI,SK-MEL-2 melanoma,> 100 µM
same,TGI,MDA-MB-435,> 100 µM
same,TGI,HL-60(TB) leukemia,> 100 µM
same,TGI,786-0 renal,> 100 µM
same,TGI,SW-620 colon,> 100 µM
same,TGI,NCI-H226 lung,> 100 µM
same,TGI,MALME-3M melanoma,> 100 µM
same,TGI,MCF7 breast,> 100 µM
same,TGI,CAKI-1 renal,> 100 µM
same,TGI,OVCAR-5 ovarian,> 100 µM
same,TGI,SNB-75 CNS,> 100 µM
same,TGI,SK-MEL-5 melanoma,> 100 µM
same,TGI,UO-31 renal,> 100 µM
same,TGI,HCT-116 colon,> 100 µM
same,TGI,HT29 colon,> 100 µM
same,TGI,U251 CNS,> 100 µM
same,TGI,SF-539 CNS,> 100 µM
same,TGI,K-562 leukemia,> 100 µM
same,TGI,DU-145 prostate,> 100 µM
same,TGI,SNB-19 CNS,> 100 µM
same,TGI,NCI-H522 lung,> 100 µM
same,TGI,BT-549 breast,> 100 µM
same,TGI,OVCAR-8 ovarian,> 100 µM
same,TGI,MDA-N,> 100 µM
same,TGI,A549 NSCLC,> 100 µM
same,TGI,SK-OV-3 ovarian,> 100 µM
same,TGI,SF-268 CNS,> 100 µM
same,TGI,PC-3 prostate,> 100 µM
same,TGI,A498 renal,> 100 µM
same,TGI,TK-10 renal,> 100 µM
same,TGI,CCRF-CEM leukemia,> 100 µM
same,TGI,SF-295 CNS,> 100 µM
same,TGI,EKVX NSCLC,> 100 µM
same,TGI,RXF 393 renal,> 100 µM
same,TGI,HOP-62 NSCLC,> 100 µM
same,TGI,IGROV1 ovarian,> 100 µM
same,TGI,SN12C renal,> 100 µM
same,TGI,HS 578T breast,> 100 µM
same,TGI,NCI-H23 lung,> 100 µM
same,TGI,T-47D breast,> 100 µM
same,TGI,RPMI-8226 leukemia,> 100 µM
same,TGI,KM12 colon,> 100 µM
same,TGI,COLO 205 colon,> 100 µM
same,TGI,UACC-62 melanoma,> 100 µM
same,TGI,SK-MEL-28 melanoma,> 100 µM
same,TGI,HOP-92 NSCLC,> 100 µM
same,TGI,UACC-257 melanoma,> 100 µM
same,TGI,ACHN renal,> 100 µM
same,TGI,OVCAR-4 ovarian,> 100 µM
same,TGI,MOLT-4 leukemia,> 100 µM
same,TGI,HCC-2998 colon,> 100 µM
same,TGI,NCI/ADR-RES ovarian,> 100 µM
O=c1c(-c2ccccc2F)coc2cc(F)ccc12,TGI,M14 melanoma,> 100 µM
same,TGI,HCT-15 colon,> 100 µM
same,TGI,LOX IMVI melanoma,> 100 µM
same,TGI,NCI-H460 lung,> 100 µM
same,TGI,MDA-MB-231 breast,> 100 µM
same,TGI,OVCAR-3 ovarian,> 100 µM
same,TGI,SK-MEL-2 melanoma,> 100 µM
same,TGI,MDA-MB-435,> 100 µM
same,TGI,HL-60(TB) leukemia,> 100 µM
same,TGI,786-0 renal,> 100 µM
same,TGI,SW-620 colon,> 100 µM
same,TGI,NCI-H226 lung,> 100 µM
same,TGI,CAKI-1 renal,> 100 µM
same,TGI,OVCAR-5 ovarian,> 100 µM
same,TGI,SNB-75 CNS,96.4 µM
same,TGI,SK-MEL-5 melanoma,> 100 µM
same,TGI,UO-31 renal,> 100 µM
same,TGI,HCT-116 colon,> 100 µM
same,TGI,HT29 colon,> 100 µM
same,TGI,U251 CNS,> 100 µM
same,TGI,SF-539 CNS,> 100 µM
same,TGI,DU-145 prostate,> 100 µM
same,TGI,SNB-19 CNS,> 100 µM
same,TGI,NCI-H522 lung,> 100 µM
same,TGI,BT-549 breast,> 100 µM
same,TGI,OVCAR-8 ovarian,> 100 µM
same,TGI,MDA-N,> 100 µM
same,TGI,A549 NSCLC,> 100 µM
same,TGI,SK-OV-3 ovarian,> 100 µM
same,TGI,SF-268 CNS,> 100 µM
same,TGI,PC-3 prostate,> 100 µM
same,TGI,A498 renal,> 100 µM
same,TGI,TK-10 renal,> 100 µM
same,TGI,CCRF-CEM leukemia,> 100 µM
same,TGI,SF-295 CNS,> 100 µM
same,TGI,EKVX NSCLC,> 100 µM
same,TGI,RXF 393 renal,> 100 µM
same,TGI,HOP-62 NSCLC,> 100 µM
same,TGI,IGROV1 ovarian,> 100 µM
same,TGI,SN12C renal,> 100 µM
same,TGI,HS 578T breast,> 100 µM
same,TGI,NCI-H23 lung,> 100 µM
same,TGI,T-47D breast,> 100 µM
same,TGI,KM12 colon,> 100 µM
same,TGI,COLO 205 colon,> 100 µM
same,TGI,UACC-62 melanoma,> 100 µM
same,TGI,SK-MEL-28 melanoma,> 100 µM
same,TGI,HOP-92 NSCLC,> 100 µM
same,TGI,UACC-257 melanoma,> 100 µM
same,TGI,ACHN renal,> 100 µM
same,TGI,OVCAR-4 ovarian,> 100 µM
same,TGI,MOLT-4 leukemia,> 100 µM
